From patent publication US12642786B2, “Methods, compositions and kits for treating multiple sclerosis and other disorders” (The Johns Hopkins University, priority 2018, dated 2026)
Entries after “also recorded” stand apart in the source; their conditions may differ.

Columns and labels:
[1] = system: murine peritoneal macrophages (mPMs); assay: mPM cytokine secretion by ELISA; format: cell-based; conditions: LPS 100 ng/mL, low-dose bryo-1
Experimental: After overnight treatment of BMDCs or mPMs with LPS 100 ng/mL±bryo-1, culture supernatants were collected and cytokine production was assayed using ELISA kits for IL-12 p70 (catalog #88-7121-22), IL-6 (catalog #88-7064-22), and IL-10 (catalog #88-7105-22) purchased from eBioscience, according to manufacturer's instructions. Plates were read at 450 nm on a tabletop plate reader.
Mice aged 8-12 wk were injected intraperitoneally with 2 mL each of 3% sterile thioglycolate (BD Biosciences, catalog #211716) medium. The mice were killed 3-5 d later, and cells were harvested by peritoneal lavage with ice-cold RPMI medium containing 2% FBS (FBS) and 1 unit/mL heparin. The cells were pelleted by centrifugation at 500×g for 8 min, washed in ice-cold RPMI containing 2% FBS alone, pelleted by centrifugation, and resuspended in ice-cold Spinner-modification minimum essential medium (SMEM; Sigma, M8167) supplemented with 10% FBS, 2 mM glutamine, and penicillin-streptomycin (SMEM-complete). Cells were then counted, equal numbers were plated into each well of appropriate cell culture dishes, and the cells were then incubated at 37° C. for 2-4 h to allow macrophage adhesion. Contaminating nonadherent cells were then removed by washing culture dishes five times with ice-cold sterile PBS. Fresh SMEM-complete was then added to the plates, which were incubated overnight at 37° C. […]

[2] = system: mixed glial cultures (MGCs); assay: Mixed glial cultures, iNOS / Arg1 immunoblot; format: cell-based, C57BL/6J mice
Experimental: Mixed glial cultures (MGCs) obtained from the cerebral cortices of P1-P3 neonatal C57BL/6J mice were used, prepared as described by Saura et al., Glia (2003) 44:183-189. Mixed glial cultures were treated with LPS (FIG. 6A) or IL4 (FIG. 6B) ±vehicle or the indicated dose of bryo-1. Expression of iNOS or Argl, respectively, was assessed by immunoblot. Images are representative of 3 independent experiments.

[3] = system: murine peritoneal macrophages (mPMs); assay: mPM arginase-1 expression by Western blot; format: cell-based; conditions: IL-4 20 ng/mL
Experimental: Cells were lysed by sonication in RIPA buffer supplemented with protease inhibitors, and protein concentration was measured by Bradford assay. Lysates were mixed with SDS sample buffer, boiled, and resolved by SDS/PAGE. Bands were transferred to PVDF Immobilon P membranes (Millipore) using a wet transfer, blocked in TBS-T containing 5% milk, and probed overnight at 4° C. with mouse monoclonal antibody against arginase-1 (Santa Cruz Biotechnology, catalog #sc-271430, 1:500). HRP-conjugated anti-mouse secondary antibody was from Jackson ImmunoResearch. Western blots were visualized using the SuperSignal West ECL system (Thermo Scientific), followed by film exposure. Blots were then stripped using Restore Western blot stripping buffer (Thermo Scientific, catalog #21059), blocked again as earlier, and probed overnight at 4° C. with HRP-conjugated anti-actin antibody before visualization as earlier. Quantitation was performed using ImageJ software.
Mice aged 8-12 wk were injected intraperitoneally with 2 mL each of 3% sterile thioglycolate (BD Biosciences, catalog #211716) medium. […] Cells were then counted, equal numbers were plated into each well of appropriate cell culture dishes, and the cells were then incubated at 37° C. for 2-4 h to allow macrophage adhesion. […]

[4] = system: CD4+, Th1 and Th17 lymphocytes in EAE mice; assay: Flow cytometry of spinal cord in EAE mice treated from clinical score 1.0; format: in vivo, C57BL/6J mice; conditions: day 18 post-immunization (late peak), treatment started at score 1.0
Experimental: Mice were killed with pentobarbital and perfused via cardiac puncture with ice-cold HBSS without cations. Brain, spinal cord (collected using hydrostatic pressure), spleen, and lymph node tissue were isolated after perfusion and were mechanically dissociated by passing through 100-μm cell strainers. For CNS tissue, after dissociation, infiltrating mononuclear cells were separated from myelin debris using a 37/70% percoll gradient. After dissociation, spleens were incubated in ACK lysis buffer to remove red blood cell contamination. Cells were counted using a MACSQuant flow cytometer (Miltenyi Biotec).
For surface marker and intracellular cytokine staining of T cells, the cells were first restimulated with a cell stimulation mixture with protein transport inhibitors (eBioscience, catalog #00-4975-03) for 4 h in cRPMI at 37° C. They then underwent live/dead and surface marker staining as earlier. For intracellular cytokine staining, cells were permeabilized and fixed using either IC Fixation buffer for cytokine analysis (eBioscience, 00-8222-49) or FoxP3 fixation/permeabilization buffer for transcription factor analysis (eBioscience, 00-5521-00) after manufacturer recommended protocol and incubated with specific conjugated antibodies for the specified proteins in permeabilization buffer for 1 h.
Cells were analyzed by flow cytometry using a MACSQuant flow cytometer (Miltenyi Biotec). Flow data analysis was performed in FlowJo (FlowJo) or FlowLogic (Inivai).

[5] = system: EAE (MOG35-55 immunized mice); assay: EAE, treatment initiated at clinical score of 1.0, clinical scoring; format: in vivo, C57BL/6J mice
Experimental: Active EAE was induced in 8-12 wk-old female C57BL/6J mice that had been allowed to acclimatize to the animal facility for at least 1 wk. MOG35-55 peptide dissolved in PBS at a concentration of 2 mg/mL was mixed 1:1 with complete Freund's adjuvant to make an emulsion. On day 0, mice were immunized by injecting 50 μL of the emulsion s.c. into each of two sites on the lateral abdomen. In addition, on day 0 and again on day 2, mice were injected intraperitoneally with 250 ng pertussis toxin. Mice were weighed and scored beginning on day 7 post-immunization. Scoring was performed in a blinded manner according to the following scale:
Bryo-1 was prepared by initially dissolving in 100% ethanol and then further diluting to 20% ethanol and 1% DMSO in PBS. The final concentration of bryo-1 was […] Mice were treated by i.p. injection of […] bryo-1 or an equal volume of vehicle control (20% ethanol and 1% DMSO in PBS) 3 d per week (Monday, Wednesday, Friday).
In a second set of experiments, mice were randomized and treatment was begun when the mice reached a clinical score of 1.0 (corresponding to tail paralysis). In this paradigm, mice received their first treatment on the day they reached a score of 1.0, and subsequently were returned to a 3 d/week schedule in sync with the other animals.
The effects of bryo-1 in two distinct therapeutic paradigms were analyzed. In both paradigms, treatments began after the onset of EAE, but the start of the treatments occurred at two different stages of the disease. In the first set of experiments, mice were randomized and treatment was initiated at the first clinical sign of motor weakness, corresponding to tail paralysis (FIG. 2A).

Structure (SMILES): CCC/C=C/C=C/C(=O)OC1/C(=C/C(=O)OC)CC2CC(C(C)O)OC(=O)CC(O)CC3CC(OC(C)=O)C(C)(C)C(O)(CC4C/C(=C/C(=O)OC)CC(/C=C/C(C)(C)C1(O)O2)O4)O3 (centres unmarked) [bryo-1, Bryostatin-1]
- LPS-induced secretion of IL-6 [1]: inhibited
- LPS-induced secretion of IL-12 [1]: inhibited
- expression of Argl (M2 marker) ([2]; MGCs treated with IL4, dose as low as 1 nM): dramatically augmented expression
- induction of iNOS (an M1 marker) by LPS ([2]; MGCs treated with LPS): blocked the induction
- IL-4-induced expression of arginase-1 [3]: augments expression; also recorded: potentiated
- numbers of Th1 cells in spinal cord [4]: significantly diminished numbers
- numbers of Th17 cells in spinal cord [4]: significantly diminished numbers
- total CD4+ lymphocytes in spinal cord [4]: near-significant trend (P=0.06) toward decreased
- motor deficits and subsequent course of EAE ([5]; 30 μg/kg i.p. 3 d per week, started at first clinical sign (tail paralysis, score 1.0)): substantially attenuated
- peak clinical score vs vehicle-treated mice ([5]; treatment started at score 1.0): lower peak clinical score
- recovery vs vehicle-treated mice ([5]; treatment started at score 1.0): faster recovery
